This note sets out measurements from the supplement of paper PMC4862054.

Holding throughout (conditions): incubation time: 72 h
The test system of assay [1] is MCF-10A. The experiment in a line: normalised response (% of control), CellTiter-Glo; higher = more viable cells (100 = DMSO, 0 = benzethonium chloride kill control). An outline of the steps:
(§1)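 Breast cancer cell lines were exposed for 72 h in 384-well plates to compound at 5 concentrations, 10-fold apart, covering a 10,000-fold range fixed for each compound. Plates were read for CellTox Green fluorescence and CellTiter-Glo luminescence and normalised to 0.1 % DMSO (100) and a positive kill control (0). Each value is the normalised signal at one concentration of the series.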

The test system of assay [2] is MDA-MB-468. Described as above. An outline of the steps:
as §1

Assay [3] relates to CAL-85-1. Described as above. An outline of the steps:
as §1

Assay [4] relates to HCC1143. The assay is described as above. An outline of the steps:
as §1

The test system of assay [5] is BT-549. The description is as above. An outline of the steps:
as §1

The test system of assay [6] is CAL-51. The description is as above. An outline of the steps: as §1
For assay [7], the system named is BT-474. The assay is described as above. An outline of the steps: as §1
Assay [8] concerns MFM-223. Described as above. An outline of the steps: as §1
Another assay has as its system SK-BR-3. Described as above. An outline of the steps: as §1
Assay [9] has as its system HCC1937. Described as above. An outline of the steps: as §1
For assay [10], the system named is MDA-MB-453. The description is as above. An outline of the steps:
as §1

In assay [11] the test system is MDA-MB-436. Described as above. An outline of the steps: as §1
Assay [12] relates to HDQ-P1. The description is as above. An outline of the steps:
as §1

For assay [13], the system named is DU-4475. Described as above. An outline of the steps: as §1
The test system of assay [14] is HCC1599. The description is as above. An outline of the steps:
as §1

Assay [15] concerns CAL-148. Described as above. An outline of the steps:
as §1

In a further assay the test system is Hs578T. The description is as above. An outline of the steps:
as §1

The subject of assay [16] is CAL-120. The assay is described as above. An outline of the steps: as §1
Assay [17] deals with MDA-MB-231. The description is as above. An outline of the steps:
as §1

Assay [18] deals with MCF-10A. The experiment in a line: normalised response (% of control), CellTox Green; higher = less cell death (100 = DMSO, 0 = benzethonium chloride kill control). An outline of the steps: as §1
In assay [19] the test system is MDA-MB-468. The assay is described as above. An outline of the steps: as §1
In assay [20] the test system is CAL-85-1. Described as above. An outline of the steps: as §1
In assay [21] the test system is HCC1143. The assay is described as above. An outline of the steps:
as §1

For assay [22], the system named is BT-549. The description is as above. An outline of the steps:
as §1

Assay [23] has as its system CAL-51. Described as above. An outline of the steps:
as §1

Assay [24] concerns BT-474. The description is as above. An outline of the steps:
as §1

For assay [25], the system named is MFM-223. The description is as above. An outline of the steps:
as §1

For assay [26], the system named is HCC1937. The assay is described as above. An outline of the steps:
as §1

Assay [27] deals with MDA-MB-453. The description is as above. An outline of the steps: as §1
For assay [28], the system named is MDA-MB-436. Described as above. An outline of the steps: as §1
For assay [29], the system named is HDQ-P1. Described as above. An outline of the steps: as §1
In assay [30] the test system is DU-4475. The description is as above. An outline of the steps:
as §1

The subject of assay [31] is HCC1599. The assay is described as above. An outline of the steps:
as §1

The test system of assay [32] is CAL-148. The description is as above. An outline of the steps:
as §1

Assay [33] deals with CAL-120. Described as above. An outline of the steps: as §1
For assay [34], the system named is MDA-MB-231. The assay is described as above. An outline of the steps: as §1

Consider `Cc1c(C(=O)Nc2ccc(N3C[C@@H](C)O[C@@H](C)C3)nc2)cccc1-c1ccc(OC(F)(F)F)cc1` [Erismodegib] (1000 nM), for which the normalised response worked out at 85.6% in the assay with MCF-10A [1]; 93.7% in the assay on MDA-MB-468 [2]; 93% with CAL-85-1 [3]; 89.8% in the assay on HCC1143 [4]; 90.5% in the assay on BT-549 [5]; 66.1% in the assay with CAL-51 [6]. Also, the normalised response was 81.7% in the assay on BT-474 [7]; 84.9% in the assay with MFM-223 [8]; 81.7% with SK-BR-3; 97.9% in the assay on HCC1937 [9]; 79.2% with MDA-MB-453 [10]; 84.6% in the assay with MDA-MB-436 [11]. The normalised response was 91.7% in the assay on HDQ-P1 [12]; 98.9% in the assay on DU-4475 [13]; 101% with HCC1599 [14]; 98.5% with CAL-148 [15]; 101% in the assay with Hs578T; 96.5% with CAL-120 [16]. Further, the normalised response in the assay with MDA-MB-231 [17] stood at 94.2%; in the assay on MCF-10A [18], 107%; in the assay on MDA-MB-468 [19] it was 111%; in the assay on CAL-85-1 [20] it was 104%; in the assay on HCC1143 [21] it was 110%; with BT-549 [22], 136%. Further, the normalised response with CAL-51 [23] was determined as 97.5%; in the assay with BT-474 [24], 103%; with MFM-223 [25], 101%; with HCC1937 [26], 74.5%; in the assay with MDA-MB-453 [27], 101%; in the assay with MDA-MB-436 [28] it was 94.7%. Further, the normalised response in the assay on HDQ-P1 [29] was 99.7%; in the assay on DU-4475 [30], 97.6%; in the assay on HCC1599 [31], 103%; with CAL-148 [32] it was 110%; in the assay with CAL-120 [33], 99.7%; in the assay with MDA-MB-231 [34] it was 72.4%.
With `CO[C@H](C(=O)[C@@H](O)[C@@H](C)O)[C@@H]1Cc2cc3cc(O[C@H]4C[C@@H](O[C@@H]5C[C@@H](O)[C@H](O)[C@@H](C)O5)[C@H](O)[C@@H](C)O4)c(C)c(O)c3c(O)c2C(=O)[C@H]1O[C@H]1C[C@@H](O[C@@H]2C[C@@H](O)[C@@H](O[C@@H]3C[C@](C)(O)[C@H](O)[C@@H](C)O3)[C@@H](C)O2)[C@H](O)[C@@H](C)O1` [Plicamycin] (10 nM), the normalised response in the assay with MCF-10A [1] was 114%; with MDA-MB-468 [2], 109%; in the assay on CAL-85-1 [3], 103%; in the assay with HCC1143 [4], 103%; in the assay on BT-549 [5], 104%; with CAL-51 [6] it was 74.9%. The normalised response amounted to 108% in the assay with BT-474 [7]; 108% in the assay on MFM-223 [8]; 111% in the assay on SK-BR-3; 97.7% in the assay with HCC1937 [9]; 118% with MDA-MB-453 [10]; 101% in the assay with MDA-MB-436 [11]. In addition, the normalised response was 96.4% in the assay with HDQ-P1 [12]; 107% with DU-4475 [13]; 117% with HCC1599 [14]; 116% in the assay with CAL-148 [15]; 105% in the assay with Hs578T; 101% in the assay with CAL-120 [16]. This compound came in with a normalised response in the assay with MDA-MB-231 [17] of 103%.
Consider `C[C@]12C=CC(=O)C=C1CC[C@@H]1[C@@H]2C(=O)C[C@@]2(C)[C@H]1CC[C@]2(O)C(=O)CO` [Prednisone] (10 nM), for which the normalised response came out at 109% with MCF-10A [1]; 98.4% in the assay on MDA-MB-468 [2]; 99.9% with CAL-85-1 [3]; 101% with HCC1143 [4]; 98% in the assay on BT-549 [5]; 118% in the assay on CAL-51 [6]. The normalised response stood at 103% with BT-474 [7]; 104% with MFM-223 [8]; 123% in the assay on SK-BR-3; 95.8% with HCC1937 [9]; 118% in the assay on MDA-MB-453 [10]; 101% with MDA-MB-436 [11]. Further, the normalised response with HDQ-P1 [12] worked out at 96.3%; in the assay with DU-4475 [13], 107%; with HCC1599 [14] it was 96.9%; with CAL-148 [15] it was 108%; with Hs578T, 96.7%; with CAL-120 [16] it was 104%. The normalised response in the assay on MDA-MB-231 [17] came out at 98.7%.
With `CO[C@H]1C[C@@H]2CC[C@@H](C)[C@@](O)(O2)C(=O)C(=O)N2CCCC[C@H]2C(=O)O[C@H]([C@H](C)C[C@@H]2CC[C@@H](O)[C@H](OC)C2)CC(=O)[C@H](C)/C=C(\C)[C@@H](O)[C@@H](OC)C(=O)[C@H](C)C[C@H](C)/C=C/C=C/C=C/1C` [Sirolimus] (0.01 nM), the normalised response in the assay with MCF-10A [1] was found to be 106%; with MDA-MB-468 [2] it was 94.1%; in the assay with CAL-85-1 [3] it was 89.9%; in the assay on HCC1143 [4], 92.4%; in the assay on BT-549 [5] it was 97.6%; in the assay with CAL-51 [6] it was 87.1%. Moreover, the normalised response in the assay on BT-474 [7] is 99.1%; with MFM-223 [8], 95.5%; with SK-BR-3, 106%; with HCC1937 [9], 105%; in the assay with MDA-MB-453 [10], 103%; with MDA-MB-436 [11], 103%. In addition, the normalised response is 100% with HDQ-P1 [12]; 104% with DU-4475 [13]; 98.3% in the assay on HCC1599 [14]; 91.1% with CAL-148 [15]; 94.7% with Hs578T; 95.9% with CAL-120 [16]. The same compound yielded a normalised response in the assay with MDA-MB-231 [17] of 93.6%.
For `CN1CCN(c2nc(C3=C(c4c[nH]c5ccccc45)C(=O)NC3=O)c3ccccc3n2)CC1` [Sotrastaurin] (10 nM), the normalised response was 99.6% in the assay with MCF-10A [1]; 93.6% in the assay with MDA-MB-468 [2]; 95.8% with CAL-85-1 [3]; 96.1% in the assay with HCC1143 [4]; 94.6% in the assay with BT-549 [5]; 123% in the assay on CAL-51 [6]. Besides, the normalised response in the assay with BT-474 [7] came out at 93.5%; with MFM-223 [8], 93.6%; in the assay with SK-BR-3 it was 124%; in the assay with HCC1937 [9], 96.6%; with MDA-MB-453 [10] it was 96.1%; with MDA-MB-436 [11], 94.2%. Moreover, the normalised response amounted to 100% in the assay with HDQ-P1 [12]; 96.8% in the assay with DU-4475 [13]; 105% in the assay with HCC1599 [14]; 93.1% with CAL-148 [15]; 101% with Hs578T; 91.3% with CAL-120 [16]. Further, in the assay on MDA-MB-231 [17], the normalised response came out at 105%.
For `CC/C(=C(\c1ccccc1)c1ccc(OCCN(C)C)cc1)c1ccccc1` [Tamoxifen] (10 nM), the normalised response was 112% in the assay on MCF-10A [1]; 99.2% in the assay on MDA-MB-468 [2]; 98.8% in the assay with CAL-85-1 [3]; 114% in the assay on HCC1143 [4]; 91.8% with BT-549 [5]; 83.8% with CAL-51 [6]. Moreover, the normalised response came out at 103% in the assay with BT-474 [7]; 108% in the assay with MFM-223 [8]; 100% in the assay with SK-BR-3; 103% in the assay with HCC1937 [9]; 98.7% with MDA-MB-453 [10]; 100% in the assay on MDA-MB-436 [11]. In addition, the normalised response in the assay on HDQ-P1 [12] was determined as 104%; with DU-4475 [13] it was 104%; in the assay with HCC1599 [14], 103%; in the assay on CAL-148 [15], 108%; with Hs578T, 97.3%; in the assay on CAL-120 [16], 100%. Also, in the assay with MDA-MB-231 [17], the normalised response was 100%.
